According to ChEMBL document CHEMBL1201862, “PubChem BioAssay data set” (2004):
Where a name gives a salt, the structure may show the parent alone. Blank lines part the entries; values can stand above or below the compound they belong to. Activity calls are given as the source filed them.

Tests used:
[1] = tested on: HEK293; assay: cells; conditions: Homo sapiens
[2] = molecular target: T1, Microphthalmia-associated transcription factor (Homo sapiens, UniProt O75030); assay: reducers of TRPM1 reporter luminescence, concentration series – cell-based, SK-MEL-5, cherry-picked, set 3, MITF inhibitor project, dose response (AID 493073); type: functional;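 also: SK-MEL-5 melanoma cells with luciferase driven by the MITF target TRPM1 promoter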
T1 sequence (O75030 whole entry): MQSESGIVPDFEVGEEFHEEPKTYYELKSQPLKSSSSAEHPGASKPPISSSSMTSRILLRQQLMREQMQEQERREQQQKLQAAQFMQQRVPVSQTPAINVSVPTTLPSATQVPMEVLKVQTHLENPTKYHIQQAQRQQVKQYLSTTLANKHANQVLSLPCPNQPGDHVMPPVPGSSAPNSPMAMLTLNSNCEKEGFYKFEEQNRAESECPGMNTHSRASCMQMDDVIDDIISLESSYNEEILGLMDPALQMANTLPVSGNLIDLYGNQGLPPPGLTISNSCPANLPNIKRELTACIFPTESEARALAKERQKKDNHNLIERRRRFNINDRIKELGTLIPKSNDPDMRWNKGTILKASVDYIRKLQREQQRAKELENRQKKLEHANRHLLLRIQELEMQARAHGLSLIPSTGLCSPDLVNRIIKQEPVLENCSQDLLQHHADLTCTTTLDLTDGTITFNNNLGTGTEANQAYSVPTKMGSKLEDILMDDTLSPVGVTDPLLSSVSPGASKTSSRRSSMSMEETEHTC

[3] = molecular target: Tumor necrosis factor (Homo sapiens, UniProt P01375); assay: analog potency on TNFa NF-kB signaling – cell-based, revised, SAR follow-up (AID 2337); type: functional
Sequence of Tumor necrosis factor (P01375 whole entry, the tested form may be a part): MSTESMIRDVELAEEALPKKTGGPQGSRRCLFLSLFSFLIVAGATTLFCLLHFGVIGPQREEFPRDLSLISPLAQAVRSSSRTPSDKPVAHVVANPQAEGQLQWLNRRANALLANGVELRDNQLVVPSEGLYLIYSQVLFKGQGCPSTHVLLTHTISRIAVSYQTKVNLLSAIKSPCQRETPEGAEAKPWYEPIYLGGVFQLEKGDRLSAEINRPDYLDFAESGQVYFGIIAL

[4] = molecular target: T2, Nucleotide-binding oligomerization domain-containing protein 1 (Homo sapiens, UniProt Q9Y239); assay: blockers of NOD1 pathway activity – revised, SAR follow-up (AID 2333); type: functional
T2 sequence (Q9Y239 whole entry): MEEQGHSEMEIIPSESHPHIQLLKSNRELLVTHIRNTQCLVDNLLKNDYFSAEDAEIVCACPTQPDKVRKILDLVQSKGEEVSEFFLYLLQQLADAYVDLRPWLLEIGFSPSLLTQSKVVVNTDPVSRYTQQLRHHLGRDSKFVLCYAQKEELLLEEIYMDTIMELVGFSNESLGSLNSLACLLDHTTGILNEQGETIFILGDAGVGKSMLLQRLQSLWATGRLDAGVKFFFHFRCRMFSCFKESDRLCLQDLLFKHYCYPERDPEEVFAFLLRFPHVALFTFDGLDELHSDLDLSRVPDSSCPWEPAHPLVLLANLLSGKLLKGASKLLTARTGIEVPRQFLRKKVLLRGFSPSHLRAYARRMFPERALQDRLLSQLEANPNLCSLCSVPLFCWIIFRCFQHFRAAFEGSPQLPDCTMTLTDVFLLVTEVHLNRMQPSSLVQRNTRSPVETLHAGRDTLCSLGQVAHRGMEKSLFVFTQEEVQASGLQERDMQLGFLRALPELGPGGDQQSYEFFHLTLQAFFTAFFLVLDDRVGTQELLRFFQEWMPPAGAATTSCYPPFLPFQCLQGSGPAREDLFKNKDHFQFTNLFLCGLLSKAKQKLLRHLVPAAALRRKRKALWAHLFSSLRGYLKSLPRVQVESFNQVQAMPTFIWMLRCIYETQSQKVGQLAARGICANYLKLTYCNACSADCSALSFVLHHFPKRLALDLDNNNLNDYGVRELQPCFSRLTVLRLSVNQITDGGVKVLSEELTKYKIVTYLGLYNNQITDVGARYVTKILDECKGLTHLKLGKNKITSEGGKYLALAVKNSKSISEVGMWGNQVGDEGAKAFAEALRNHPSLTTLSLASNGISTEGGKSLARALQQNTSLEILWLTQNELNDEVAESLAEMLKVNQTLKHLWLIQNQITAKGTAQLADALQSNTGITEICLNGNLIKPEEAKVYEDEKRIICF

[5] = molecular target: T3, Heat shock factor protein 1 (Mus musculus, UniProt P38532); assay: decrease of HSF1-responsive luciferase luminescence – cell-based, NIH3T3, dose retest, confirmation (AID 2382); type: functional;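 also: NIH3T3 fibroblasts with HSF1-driven luciferase reporter stressed by proteasome inhibitor MG132; luminescence from HSF1-driven luciferase expression after 8 hours of MG132 stress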
T3 sequence (P38532 whole entry): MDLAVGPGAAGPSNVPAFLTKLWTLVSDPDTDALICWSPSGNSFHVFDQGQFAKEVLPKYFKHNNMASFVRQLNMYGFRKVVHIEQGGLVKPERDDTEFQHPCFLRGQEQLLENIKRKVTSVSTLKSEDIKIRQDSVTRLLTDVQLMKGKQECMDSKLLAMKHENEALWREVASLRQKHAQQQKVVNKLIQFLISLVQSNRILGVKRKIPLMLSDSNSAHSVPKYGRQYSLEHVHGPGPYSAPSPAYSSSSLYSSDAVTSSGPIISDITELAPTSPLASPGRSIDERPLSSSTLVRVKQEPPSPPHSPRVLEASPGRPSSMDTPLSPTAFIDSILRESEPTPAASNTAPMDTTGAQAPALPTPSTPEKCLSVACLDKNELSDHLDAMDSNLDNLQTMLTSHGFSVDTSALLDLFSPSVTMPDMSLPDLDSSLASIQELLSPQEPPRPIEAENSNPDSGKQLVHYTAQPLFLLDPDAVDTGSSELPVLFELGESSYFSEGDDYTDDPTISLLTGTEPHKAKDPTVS

[6] = molecular target: Glucose-6-phosphate 1-dehydrogenase (Homo sapiens, UniProt P11413); assay: inhibition of Homo sapiens G6PD, dose series – biochemical, fluorescence, selectivity assay for P. falciparum G6PD inhibitor project, dose response (AID 504792); type: functional
Sequence of Glucose-6-phosphate 1-dehydrogenase (P11413 whole entry): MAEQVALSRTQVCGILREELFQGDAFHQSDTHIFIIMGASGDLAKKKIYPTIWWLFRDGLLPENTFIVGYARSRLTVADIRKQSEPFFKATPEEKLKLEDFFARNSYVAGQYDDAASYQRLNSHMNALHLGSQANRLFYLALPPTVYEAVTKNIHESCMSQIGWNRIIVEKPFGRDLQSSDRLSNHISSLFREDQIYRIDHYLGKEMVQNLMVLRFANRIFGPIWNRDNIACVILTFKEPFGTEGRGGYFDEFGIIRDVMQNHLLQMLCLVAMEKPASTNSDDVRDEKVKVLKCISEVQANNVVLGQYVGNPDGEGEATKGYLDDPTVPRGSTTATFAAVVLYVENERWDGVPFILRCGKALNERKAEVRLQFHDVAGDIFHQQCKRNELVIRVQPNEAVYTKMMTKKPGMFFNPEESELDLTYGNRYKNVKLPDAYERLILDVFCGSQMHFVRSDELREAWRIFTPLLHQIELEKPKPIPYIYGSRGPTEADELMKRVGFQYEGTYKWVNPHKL

[7] = tested on: HEK293; assay: EBV LMP1 TES2 canonical NF-kB signalling blockers – cell-based, HEK293, luciferase, cherry-pick, dose response (AID 588343); type: functional; conditions: Homo sapiens
[8] = blockers of bursicon-stimulated LGR2 cAMP reporter – cell-based, HEK293, CRE-luciferase reporter, cherry pick, set 2, dose response (AID 743343); type: functional;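 also: transfected cells were stimulated with diluted bursicon conditioned medium after compound addition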
[9] = blockade of melanocortin 4 receptor signaling – cell-based, plate reader, cherry pick, counter-screen for LGR2 antagonist project, dose response (AID 743444); type: functional;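 also: transfected HEK 293 cells stimulated with alpha-MSH peptide; potency of inhibitors of the alpha-MSH evoked signal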
[10] = molecular target: T4, DNA repair protein RAD52 homolog (Homo sapiens, UniProt P43351); type: functional, biochemical
T4 sequence (P43351 whole entry): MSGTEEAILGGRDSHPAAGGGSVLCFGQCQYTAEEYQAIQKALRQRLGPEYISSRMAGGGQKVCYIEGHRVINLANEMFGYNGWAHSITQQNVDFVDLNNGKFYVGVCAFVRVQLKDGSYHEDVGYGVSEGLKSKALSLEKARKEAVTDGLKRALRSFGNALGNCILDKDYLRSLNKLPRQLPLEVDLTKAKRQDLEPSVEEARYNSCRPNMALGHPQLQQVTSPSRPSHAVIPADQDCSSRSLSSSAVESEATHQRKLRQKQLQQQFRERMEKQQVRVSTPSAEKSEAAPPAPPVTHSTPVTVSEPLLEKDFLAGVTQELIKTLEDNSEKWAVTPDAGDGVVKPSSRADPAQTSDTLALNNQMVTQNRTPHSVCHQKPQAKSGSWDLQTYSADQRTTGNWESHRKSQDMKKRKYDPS

[11] = molecular target: Voltage-gated inwardly rectifying potassium channel KCNH2 (Homo sapiens, UniProt Q12809); conditions: Potency;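 also: confirmatory quantitative high-throughput screen measuring inhibition of hERG channel activity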
Sequence of Voltage-gated inwardly rectifying potassium channel KCNH2 (Q12809 whole entry): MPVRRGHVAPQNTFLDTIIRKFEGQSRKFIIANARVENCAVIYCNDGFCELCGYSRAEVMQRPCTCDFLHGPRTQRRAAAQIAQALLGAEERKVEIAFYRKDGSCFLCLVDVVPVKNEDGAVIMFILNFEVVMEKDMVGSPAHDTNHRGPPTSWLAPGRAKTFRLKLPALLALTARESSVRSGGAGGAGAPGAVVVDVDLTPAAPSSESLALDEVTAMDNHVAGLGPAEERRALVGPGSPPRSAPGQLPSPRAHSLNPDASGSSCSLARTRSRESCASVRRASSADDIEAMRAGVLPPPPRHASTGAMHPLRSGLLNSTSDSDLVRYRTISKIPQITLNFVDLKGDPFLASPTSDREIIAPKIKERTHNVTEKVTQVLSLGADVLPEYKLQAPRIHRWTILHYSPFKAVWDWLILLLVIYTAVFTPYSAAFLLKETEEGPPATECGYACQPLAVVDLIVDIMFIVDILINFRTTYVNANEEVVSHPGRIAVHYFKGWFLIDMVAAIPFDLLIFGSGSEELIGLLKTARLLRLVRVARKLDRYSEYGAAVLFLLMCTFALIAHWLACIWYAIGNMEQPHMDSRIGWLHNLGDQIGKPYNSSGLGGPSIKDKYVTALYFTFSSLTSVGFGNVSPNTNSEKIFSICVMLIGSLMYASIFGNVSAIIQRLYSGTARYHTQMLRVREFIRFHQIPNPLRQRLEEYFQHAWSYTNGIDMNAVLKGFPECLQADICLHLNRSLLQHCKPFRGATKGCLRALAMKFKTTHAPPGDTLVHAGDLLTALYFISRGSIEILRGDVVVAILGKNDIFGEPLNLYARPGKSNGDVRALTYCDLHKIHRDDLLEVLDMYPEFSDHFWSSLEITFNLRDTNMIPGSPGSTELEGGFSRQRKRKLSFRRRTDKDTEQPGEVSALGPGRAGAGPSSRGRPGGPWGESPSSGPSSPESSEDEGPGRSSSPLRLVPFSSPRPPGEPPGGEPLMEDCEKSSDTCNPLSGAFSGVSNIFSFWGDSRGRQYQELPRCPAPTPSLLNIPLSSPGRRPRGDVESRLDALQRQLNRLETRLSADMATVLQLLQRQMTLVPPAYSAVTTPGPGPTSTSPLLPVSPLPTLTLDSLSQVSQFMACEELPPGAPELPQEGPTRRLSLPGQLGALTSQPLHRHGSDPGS

[12] = tested on: HEK293; assay: cells; type: functional, cell-based; conditions: Homo sapiens
[13] = tested on: HEK293; assay: cells; type: functional, cell-based; conditions: Homo sapiens; remark: listed apart in the source
[14] = tested on: HEK293; assay: NOD2 signaling inhibitors in MDP-stimulated cells, cell-based, uHTS, luminescence (AID 2001); type: functional; conditions: Homo sapiens
[15] = tested on: Streptococcus; assay: GAS UMAA2166 growth inhibition – luminescence, BacTiterGlo, counter-screen for streptokinase expression inhibitor project, dose response (AID 1915); type: functional, organism-based;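 also: potency for reduction of bacterial viability or growth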
[16] = tested on: HEK293; assay: inhibition of NOD1-driven NF-kB reporter – cell-based, luminescence, uHTS, primary screen (AID 1578); type: functional; conditions: Homo sapiens
[17] = tested on: Streptococcus sp. 'group A'; assay: Streptococcus pyogenes SK(-)GAS viability under kanamycin – luminescence, BacTiterGlo, confirmation, counter-screen for streptokinase expression inhibitor project, dose response (AID 1900); type: functional, organism-based
[18] = molecular target: DNA dC->dU-editing enzyme APOBEC-3G (Homo sapiens, UniProt Q9HC16); type: functional;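 also: Dose-response counterscreen measuring inhibition of APOBEC3G DNA deaminase activity, run while confirming APOBEC3A inhibitors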
Sequence of DNA dC->dU-editing enzyme APOBEC-3G (Q9HC16 whole entry): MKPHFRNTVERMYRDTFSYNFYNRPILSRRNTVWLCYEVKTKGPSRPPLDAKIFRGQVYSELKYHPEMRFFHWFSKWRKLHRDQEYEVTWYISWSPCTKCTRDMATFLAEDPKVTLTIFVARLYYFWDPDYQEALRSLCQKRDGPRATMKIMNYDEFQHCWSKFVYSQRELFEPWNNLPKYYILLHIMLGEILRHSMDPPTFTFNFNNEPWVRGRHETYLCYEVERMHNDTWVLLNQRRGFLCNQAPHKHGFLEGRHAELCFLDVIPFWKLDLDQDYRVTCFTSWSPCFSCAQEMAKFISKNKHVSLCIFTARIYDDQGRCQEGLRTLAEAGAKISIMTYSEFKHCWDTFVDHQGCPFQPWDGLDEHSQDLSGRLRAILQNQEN

[19] = molecular target: DNA dC->dU-editing enzyme APOBEC-3A (Homo sapiens, UniProt P31941); assay: Dose Response confirmation of small molecule APOBEC3A DNA Deaminase Inhibitors via a fluorescence-based single-stranded DNA deaminase assay. [Related pubchem assays (depositor defined):AID493011, AID493024]; type: functional
Sequence of DNA dC->dU-editing enzyme APOBEC-3A (P31941 whole entry, the tested form may be a part): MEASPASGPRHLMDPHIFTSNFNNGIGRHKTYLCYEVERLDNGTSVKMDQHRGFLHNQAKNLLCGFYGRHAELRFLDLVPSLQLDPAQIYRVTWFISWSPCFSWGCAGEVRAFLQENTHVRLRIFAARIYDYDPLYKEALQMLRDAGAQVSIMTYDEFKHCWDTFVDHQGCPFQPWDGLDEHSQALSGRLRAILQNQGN

[20] = molecular target: T5, Carboxy-terminal domain RNA polymerase II polypeptide A small phosphatase 1 (Homo sapiens, UniProt Q9GZU7); assay: CTDSP1 inhibitors, concentration-response, biochemical, absorbance readout, ultra-high-throughput screen actives (AID 540297); type: functional
T5 sequence (Q9GZU7 whole entry): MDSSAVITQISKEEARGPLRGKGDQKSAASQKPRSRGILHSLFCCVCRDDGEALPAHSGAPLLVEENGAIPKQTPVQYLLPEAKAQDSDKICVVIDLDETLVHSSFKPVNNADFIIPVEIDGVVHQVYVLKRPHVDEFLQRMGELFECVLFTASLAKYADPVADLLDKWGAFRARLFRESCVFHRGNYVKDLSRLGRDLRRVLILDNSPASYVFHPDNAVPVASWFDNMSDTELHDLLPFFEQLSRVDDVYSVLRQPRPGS

[21] = molecular target: Large T antigen (Simian virus 40, UniProt P03070); type: functional, Betapolyomavirus macacae;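 also: Confirmatory-stage PubChem screen for compounds that inhibit SV40 T antigen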
Sequence of Large T antigen (P03070 whole entry): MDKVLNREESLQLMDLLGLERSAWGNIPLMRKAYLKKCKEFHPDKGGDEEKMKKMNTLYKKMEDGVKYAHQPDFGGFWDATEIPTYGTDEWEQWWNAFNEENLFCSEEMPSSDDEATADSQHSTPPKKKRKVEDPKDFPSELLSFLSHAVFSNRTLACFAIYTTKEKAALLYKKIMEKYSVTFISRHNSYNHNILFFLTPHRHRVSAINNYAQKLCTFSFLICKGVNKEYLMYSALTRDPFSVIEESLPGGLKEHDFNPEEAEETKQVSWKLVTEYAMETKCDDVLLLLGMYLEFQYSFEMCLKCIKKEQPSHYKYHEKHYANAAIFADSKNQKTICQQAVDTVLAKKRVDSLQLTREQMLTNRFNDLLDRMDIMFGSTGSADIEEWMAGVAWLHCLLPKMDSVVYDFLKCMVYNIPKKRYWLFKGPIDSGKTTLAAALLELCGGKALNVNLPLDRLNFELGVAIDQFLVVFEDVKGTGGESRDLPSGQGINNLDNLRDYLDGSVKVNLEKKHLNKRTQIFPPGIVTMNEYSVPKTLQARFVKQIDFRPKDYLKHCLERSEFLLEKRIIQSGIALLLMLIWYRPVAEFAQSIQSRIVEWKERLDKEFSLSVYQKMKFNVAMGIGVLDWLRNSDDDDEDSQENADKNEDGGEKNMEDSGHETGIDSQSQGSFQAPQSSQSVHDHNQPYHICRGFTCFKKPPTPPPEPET

[22] = molecular target: Peroxisome proliferator-activated receptor gamma/Nuclear receptor coactivator 1 (Homo sapiens, UniProt P37231); assay: TR-FRET dose response biochemical High Throughput Screening assay for agonists of the steroid receptor coactivator 1 (SRC-1) recruitment by the peroxisome proliferator-activated receptor gamma (PPAR gamma): non-selective agonists. [Related pubchem assays (depositor defined):AID1300, AID1808, AID504735, AID631]; type: protein assay
[23] = molecular target: Peroxisome proliferator-activated receptor gamma/Nuclear receptor coactivator 2 (Homo sapiens, UniProt P37231); assay: (§1) TR-FRET dose response biochemical High Throughput Screening assay for agonists of the steroid receptor coactivator 2 (SRC-2) recruitment by the peroxisome proliferator-activated receptor gamma (PPAR gamma): non-selective agonists. [Related pubchem assays: 1297, 1032 ]; type: functional
[24] = molecular target: Peroxisome proliferator-activated receptor gamma/Nuclear receptor coactivator 3 (Homo sapiens, UniProt P37231); assay: as §1, with “3 (SRC-3)” for “2 (SRC-2)”, “1301 (Confirmation screen.), 1048 (Primary screen.)]” for “1297, 1032 ]”; type: functional

Compound: COCCn1c(C)cc(C(=O)COC(=O)c2ccccc2Br)c1C
IC50 [1]: > 20 µM (inactive)
AC50 [2]: 1.14 µM (active)
IC50 [3]: < 39.1 nM (active)
IC50 [4]: 11.3 µM (active)
EC50 [5]: < 160 nM (active)

IC50 [6]: 22.1 µM (inactive)
Compound: [O-]/[N+](=C\c1ccccc1)c1ccc(Br)cc1

Compound: NC(=S)NN=Cc1nccc2c(N)cccc12
AC50 [7]: 1.55 µM (active)

Compound: O=C(Nc1cccc(C(=O)O)c1)Nc1ccccc1Cl
AC50 [7]: 4.97 µM (active)
AC50 [8]: 2.75 µM (active)
AC50 [9]: 4.29 µM (active)

AC50 [10]: 18 µM (active)
Compound: CN(C)c1nc(N)c(C(=O)NC(=N)N)nc1Cl [5-(N,N-DIMETHYL)AMILORIDE HYDROCHLORIDE]
AC50 [11]: 17.8 µM (inconclusive)

Compound: N#Cc1c(O)nc(SCc2cccc(C(F)(F)F)c2)nc1-c1ccccc1
IC50 [1]: > 20 µM (inactive)
IC50 [12]: > 20 µM (inactive)
IC50 [13]: 19 µM (active)
IC50 [14]: 13.2 µM (inactive)
EC50 [15]: 10.3 µM (active)
EC50 [16]: 6.55 µM (active)
EC50 [17]: 2.63 µM (active)

Compound: O=C(N=C1NCCS1)C1CCN(S(=O)(=O)c2cc([N+](=O)[O-])ccc2Cl)CC1
IC50 [18]: 52.5 µM (active)
IC50 [19]: 22 µM (active)
IC50 [20]: 3.39 µM (active)

IC50 [6]: > 80 µM (inactive)
IC50 [21]: 42.5 µM (active)
Compound: COc1ccc(NC2CCCN(Cc3cccc4cnccc34)C2)cc1OC (configuration not stated)

EC50 [22]: > 79.4 µM (inactive)
EC50 [23]: > 79.4 µM (not active)
EC50 [24]: > 79.4 µM (not active)
Compound: COCCNC(=O)CSc1cc(=O)n(C)c2cc(Cl)ccc12
